# System: K^+ currents (voltage dependent potassium channels) in DRG neurons
# Assay type: cell-based, Wistar rats
substance,measurement,value
FHGGSWYRFPWGY-NH2 [Mo1659],Effect on fast transient K^+ current component,not significantly affected
